{
  "source": "paper PMC6661812",
  "about": "“Synthesis, biological activity and molecular docking of new tricyclic series as α-glucosidase inhibitors” (BMC Chemistry, 2019)",
  "key": {"[1]": {"target": "α-glucosidase enzyme type 1 from Baker’s yeast (Saccharomyces cerevisiae, UniProt P53341)", "sequence (P53341 whole entry)": "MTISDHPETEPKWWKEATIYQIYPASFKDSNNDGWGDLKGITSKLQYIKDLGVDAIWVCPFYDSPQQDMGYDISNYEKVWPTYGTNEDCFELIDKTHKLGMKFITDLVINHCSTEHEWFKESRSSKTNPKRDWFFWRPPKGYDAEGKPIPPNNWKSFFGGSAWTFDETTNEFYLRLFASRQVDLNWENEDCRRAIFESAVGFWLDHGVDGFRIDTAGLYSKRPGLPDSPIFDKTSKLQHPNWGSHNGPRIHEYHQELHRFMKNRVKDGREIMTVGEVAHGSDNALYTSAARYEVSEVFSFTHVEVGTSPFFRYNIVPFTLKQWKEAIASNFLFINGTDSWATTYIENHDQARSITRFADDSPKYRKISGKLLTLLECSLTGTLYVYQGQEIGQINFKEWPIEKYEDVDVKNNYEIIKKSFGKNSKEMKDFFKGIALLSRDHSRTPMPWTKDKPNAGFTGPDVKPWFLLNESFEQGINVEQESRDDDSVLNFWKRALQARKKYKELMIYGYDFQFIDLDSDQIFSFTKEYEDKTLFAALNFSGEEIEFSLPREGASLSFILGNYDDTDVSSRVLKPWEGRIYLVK", "experiment": "α-Glucosidase inhibitory assay (p-NPG substrate, absorbance at 405 nm)", "assay_type": "biochemical", "conditions": "for inhibition at 100 µg/mL: 100 µg/mL of each compound, test repeated three times, read-out: average percent inhibition of α-glucosidase; for IC50: mean of three experiments ± SEM, more than five concentrations", "description": "Phosphate-buffered saline pH 6.5 was prepared at 20 °C by dissolving sodium phosphate monobasic (1.4 g), sodium chloride (8 g), potassium chloride (0.2 g) and potassium dihydrogen phosphate (0.2 g) in deionized water (1 L). The solution was adjusted to pH 6.5 at 20 °C with 1 M sodium hydroxide (NaOH) or hydrochloric acid (HCl). A 20-mM solution of para-nitrophenyl-α-D-glucopyranoside (p-NPG substrate) was prepared by dissolving […] of p-NPG in 10 mL of buffer solution. The α-glucosidase enzyme solution was prepared by dissolving α-glucosidase enzyme type 1 from Baker’s yeast (1 mg) in cold phosphate-buffered saline (1000 µL), pH 6.5; 50 µL of this solution was mixed into 12 mL of cold phosphate-buffered saline to give a concentration of 0.125 unit/mL. For the screening of samples, 200 µg/mL concentration was prepared in 100% dimethyl sulfoxide (DMSO). Then, two-fold serial dilutions with 5% DMSO were prepared in a 96-well microplate to give final concentrations of 100, 50, 25, 12.5, 6.25, 3.13 and 1.56 µg/mL. […]\nA volume of 10 µL of 5% DMSO was added to the 96 wells of the microplate. Then, 10 µL of the stock sample was added to the first well and mixed. Subsequently, 10 µL of the sample from the first well was taken and added to the second well and this procedure was repeated for the two-fold serial dilutions. Next, 20 µL of the α-glucosidase enzyme, 40 µL of phosphate buffered saline at pH 6.5 and 20 µL of deionized water were added to each well in the 96-well microtiter plate and mixed. The mixture was pre-incubated at 37 °C for 10 min. Then, 10 µL of 20 mM p-NPG solution was added to the mixture and the absorbance at 0 min. was measured at 405 nm. The reaction was incubated for 30 min. at 37 °C and the absorbance was then measured. […] Experiments were performed in triplicate. The inhibition activity of α-glucosidase was determined based on the described method by Ahmad et al.. The percent inhibition (%) of α-glucosidase inhibitory activity was calculated using the equation: %inhibition=A30min-A0mincontrol-A30min-A0minexp/A30min-A0mincontrol×100\\%\nIC50 values are the mean values of three experiments represented as SEM (n = 3). […] Statistical analysis using one-way ANOVA was applied to the results. Nonlinear regression analysis using a four-parameter logistic curve was performed to calculate the IC50 values. The statistical software used were Microsoft Excel 2010 and Sigma Plot (version 14.0 Notebook, Systat Software Inc.)."}},
  "data": [
    {"compound": "O=c1c2cccnc2n2nc(Oc3ccccc3)nc2n1Cc1ccccc1", "note": "[Compound 2c, 4-Benzyl-2-phenoxypyrido[3,2-e][1,2,4]triazolo[1,5-a]pyrimidin-5(4H)-one]", "values": [
      {"measurement": "melting point", "result": "195 to 197", "unit": "°C"}
    ]},
    {"compound": "c1ccc(Nc2nc3nc(Oc4ccccc4)nn3c3ncccc23)cc1", "note": "[Compound 6a, 2-Phenoxy-N-phenylpyrido[3,2-e][1,2,4]triazolo[1,5-a]pyrimidin-5-amine]", "values": [
      {"measurement": "inhibition at 100 µg/mL", "setting": "[1]", "result": "> 50", "unit": "%"},
      {"measurement": "IC50", "setting": "[1]", "result": 154, "unit": "µM"},
      {"measurement": "melting point", "result": "251 to 253", "unit": "°C"}
    ]},
    {"compound": "O=c1[nH]c2nc(Oc3ccccc3)nn2c2ncccc12", "note": "[Compound 1, 2-phenoxypyrido[3,2-e][1,2,4]triazolo[1,5-a]pyrimidin-5(4H)-one]", "values": [
      {"measurement": "melting point", "result": "252 to 254", "unit": "°C"}
    ]},
    {"compound": "COc1ccc(Nc2nc3nc(Oc4ccccc4)nn3c3ncccc23)cc1", "note": "[Compound 6c, N-(4-Methoxyphenyl)-2-phenoxypyrido[3,2-e][1,2,4]triazolo[1,5-a]pyrimidin-5-amine]", "values": [
      {"measurement": "inhibition at 100 µg/mL", "setting": "[1]", "result": "> 60", "unit": "%"},
      {"measurement": "IC50", "setting": "[1]", "result": 177, "unit": "µM"},
      {"measurement": "melting point", "result": "174 to 176", "unit": "°C"}
    ]},
    {"compound": "O=c1c2cccnc2n2nc(Oc3ccccc3)nc2n1Cc1ccc([N+](=O)[O-])cc1", "note": "[Compound 2h, 4-(4-Nitrobenzyl)-2-phenoxypyrido[3,2-e][1,2,4]triazolo[1,5-a]pyrimidin-5(4H)-one]", "values": [
      {"measurement": "melting point", "result": "150 to 152", "unit": "°C"}
    ]},
    {"compound": "CCOc1ccc(Nc2nc3nc(Oc4ccccc4)nn3c3ncccc23)cc1", "note": "[Compound 6d, N-(4-Ethoxyphenyl)-2-phenoxypyrido[3,2-e][1,2,4]triazolo[1,5-a]pyrimidin-5-amine]", "values": [
      {"measurement": "inhibition at 100 µg/mL", "setting": "[1]", "result": "> 60", "unit": "%"},
      {"measurement": "IC50", "setting": "[1]", "result": 139, "unit": "µM"},
      {"measurement": "melting point", "result": "154 to 156", "unit": "°C"}
    ]},
    {"compound": "O=c1c2cccnc2n2nc(Oc3ccccc3)nc2n1Cc1ccc(Cl)cc1", "note": "[Compound 2i, 4-(4-Chlorobenzyl)-2-phenoxypyrido[3,2-e][1,2,4]triazolo[1,5-a]pyrimidin-5(4H)-one]", "values": [
      {"measurement": "melting point", "result": "144 to 146", "unit": "°C"}
    ]},
    {"compound": "Cc1cccc(Cn2c(=O)c3cccnc3n3nc(Oc4ccccc4)nc23)c1", "note": "[Compound 2e, 4-(3-Methylbenzyl)-2-phenoxypyrido[3,2-e][1,2,4]triazolo[1,5-a]pyrimidin-5(4H)-one]", "values": [
      {"measurement": "melting point", "result": "181 to 183", "unit": "°C"}
    ]},
    {"compound": "S=c1[nH]c2nc(Oc3ccccc3)nn2c2ncccc12", "note": "[Compound 3, 2-phenoxypyrido[3,2-e][1,2,4]triazolo[1,5-a]pyrimidine-5(4H)-thione]", "values": [
      {"measurement": "inhibition at 100 µg/mL", "setting": "[1]", "result": "> 60", "unit": "%"},
      {"measurement": "IC50", "setting": "[1]", "result": 168, "unit": "µM"},
      {"measurement": "melting point", "result": "270 to 272", "unit": "°C"}
    ]},
    {"compound": "O=C(NNc1nc2nc(Oc3ccccc3)nn2c2ncccc12)c1ccncc1", "note": "[Compound 6i, N’-(2-phenoxypyrido[3,2-e][1,2,4]triazolo[1,5-a]pyrimidin-5-yl)isonicotinohydrazide]", "values": [
      {"measurement": "melting point", "result": "163 to 165", "unit": "°C"}
    ]},
    {"compound": "Clc1nc2nc(Oc3ccccc3)nn2c2ncccc12", "note": "[Compound 5, 5-chloro-2-phenoxypyrido[3,2-e][1,2,4]triazolo[1,5-a]pyrimidine]", "values": [
      {"measurement": "melting point", "result": "190 to 192", "unit": "°C"}
    ]},
    {"compound": "Cc1ccc(Nc2nc3nc(Oc4ccccc4)nn3c3ncccc23)cc1", "note": "[Compound 6b, 2-Phenoxy-N-(p-tolyl)pyrido[3,2-e][1,2,4]triazolo[1,5-a]pyrimidin-5-amine]", "values": [
      {"measurement": "inhibition at 100 µg/mL", "setting": "[1]", "result": "> 50", "unit": "%"},
      {"measurement": "IC50", "setting": "[1]", "result": 207, "unit": "µM"},
      {"measurement": "melting point", "result": "162 to 164", "unit": "°C"}
    ]},
    {"compound": "O=c1c2cccnc2n2nc(Oc3ccccc3)nc2n1CCN1CCCCC1", "note": "[Compound 2k, 2-Phenoxy-4-(2-(piperidin-1-yl)ethyl)pyrido[3,2-e][1,2,4]triazolo[1,5-a]pyrimidin-5(4H)-one]", "values": [
      {"measurement": "melting point", "result": "200 to 202", "unit": "°C"}
    ]},
    {"compound": "CCn1c(=O)c2cccnc2n2nc(Oc3ccccc3)nc12", "note": "[Compound 2a, 4-Ethyl-2-phenoxypyrido[3,2-e][1,2,4]triazolo[1,5-a]pyrimidin-5(4H)-one]", "values": [
      {"measurement": "inhibition at 100 µg/mL", "setting": "[1]", "result": "> 50", "unit": "%"},
      {"measurement": "IC50", "setting": "[1]", "result": 304, "unit": "µM"},
      {"measurement": "melting point", "result": "173 to 175", "unit": "°C"}
    ]},
    {"compound": "C=CCn1c(=O)c2cccnc2n2nc(Oc3ccccc3)nc12", "note": "[Compound 2b, 4-Allyl-2-phenoxypyrido[3,2-e][1,2,4]triazolo[1,5-a]pyrimidin-5(4H)-one]", "values": [
      {"measurement": "melting point", "result": "170 to 172", "unit": "°C"}
    ]},
    {"compound": "COc1cccc(CSc2nc3nc(Oc4ccccc4)nn3c3ncccc23)c1", "note": "[Compound 4, 5-((3-methoxybenzyl)thio)-2-phenoxypyrido[3,2-e][1,2,4]triazolo[1,5-a]pyrimidine]", "values": [
      {"measurement": "melting point", "result": "149 to 151", "unit": "°C"}
    ]},
    {"compound": "Cc1ccccc1Cn1c(=O)c2cccnc2n2nc(Oc3ccccc3)nc12", "note": "[Compound 2d, 4-(2-Methylbenzyl)-2-phenoxypyrido[3,2-e][1,2,4]triazolo[1,5-a]pyrimidin-5(4H)-one]", "values": [
      {"measurement": "inhibition at 100 µg/mL", "setting": "[1]", "result": "> 50", "unit": "%"},
      {"measurement": "IC50", "setting": "[1]", "result": 174, "unit": "µM"},
      {"measurement": "melting point", "result": "160 to 162", "unit": "°C"}
    ]},
    {"compound": "ONc1nc2nc(Oc3ccccc3)nn2c2ncccc12", "note": "[Compound 6e, N-(2-phenoxypyrido[3,2-e][1,2,4]triazolo[1,5-a]pyrimidin-5-yl)hydroxylamine]", "values": [
      {"measurement": "melting point", "result": "249 to 251", "unit": "°C"}
    ]},
    {"compound": "COc1ccc(O)c(/C=N/Nc2nc3nc(Oc4ccccc4)nn3c3ncccc23)c1", "note": "[Compound 6g, (E)-4-Methoxy-2-((2-(2-phenoxypyrido[3,2-e][1,2,4]triazolo[1,5-a]pyrimidin-5-yl)hydrazono)methyl)phenol]", "values": [
      {"measurement": "melting point", "result": "220 to 222", "unit": "°C"}
    ]},
    {"compound": "NNc1nc2nc(Oc3ccccc3)nn2c2ncccc12", "note": "[Compound 6f, 5-hydrazinyl-2-phenoxypyrido[3,2-e][1,2,4]triazolo[1,5-a]pyrimidine]", "values": [
      {"measurement": "melting point", "result": "241 to 243", "unit": "°C"}
    ]},
    {"compound": "COc1cccc(Cn2c(=O)c3cccnc3n3nc(Oc4ccccc4)nc23)c1", "note": "[Compound 2f, 4-(3-Methoxybenzyl)-2-phenoxypyrido[3,2-e][1,2,4]triazolo[1,5-a]pyrimidin-5(4H)-one]", "values": [
      {"measurement": "melting point", "result": "189 to 191", "unit": "°C"}
    ]},
    {"compound": "O=c1c2cccnc2n2nc(Oc3ccccc3)nc2n1CCN1CCOCC1", "note": "[Compound 2j, 4-(2-Morpholinoethyl)-2-phenoxypyrido[3,2-e][1,2,4]triazolo[1,5-a]pyrimidin-5(4H)-one]", "values": [
      {"measurement": "melting point", "result": "169 to 171", "unit": "°C"}
    ]},
    {"compound": "COc1ccccc1/C=N/Nc1nc2nc(Oc3ccccc3)nn2c2ncccc12", "note": "[Compound 6h, (E)-5-(2-(2-Methoxybenzylidene)hydrazinyl)-2-phenoxypyrido[3,2-e][1,2,4]triazolo[1,5-a]pyrimidine]", "values": [
      {"measurement": "inhibition at 100 µg/mL", "setting": "[1]", "result": "> 50", "unit": "%"},
      {"measurement": "IC50", "setting": "[1]", "result": 104, "unit": "µM"},
      {"measurement": "melting point", "result": "111 to 113", "unit": "°C"}
    ]}
  ]
}
